# Where a name gives a salt, the structure may show the parent alone. Read-outs that look alike come from different tables or passages of the source.
# Tests used:
# Assay in all cases: AK assay 384-well format, Prestwick library screening
# [1] = system: A. baumannii strain 98-37-09; type: cell-based, Acinetobacter baumannii; conditions: 50 μM final drug concentration; for fold induction at 50 µM: Acinetobacter baumannii, 983709, 3 h
# [2] = system: P. aeruginosa; type: cell-based, Pseudomonas aeruginosa; conditions: 50 μM final drug concentration; for fold induction at 50 µM: Pseudomonas aeruginosa, 3 h
# [3] = system: E. coli; type: cell-based, Escherichia coli; conditions: 50 μM final drug concentration; for fold induction at 50 µM: Escherichia coli, 3 h
# [4] = system: S. aureus strain USA300-0114; type: cell-based, Staphylococcus aureus; conditions: 50 μM final drug concentration; for fold induction at 50 µM: Staphylococcus aureus, USA300, 3 h
# [5] = system: K. pneumoniae; type: cell-based, Klebsiella pneumoniae; conditions: 50 μM final drug concentration; for fold induction at 50 µM: Klebsiella pneumoniae, 3 h
# [6] = system: E. cloacae; type: cell-based, Enterobacter cloacae; conditions: 50 μM final drug concentration; for fold induction at 50 µM: Enterobacter cloacae, 3 h
# [7] = system: E. faecium; type: cell-based, Enterococcus faecium; conditions: 50 μM final drug concentration; for fold induction at 50 µM: Enterococcus faecium, 3 h
# [8] = cutoff for positive-scoring molecules 3-fold increase, read-out: AK-based Prestwick Library Screening Results, A. baumannii (fold increase in extracellular AK activity)
# [9] = cutoff for positive-scoring molecules 3-fold increase, read-out: AK-based Prestwick Library Screening Results, P. aeruginosa (fold increase in extracellular AK activity)
# [10] = cutoff for positive-scoring molecules 3-fold increase, read-out: AK-based Prestwick Library Screening Results, E. coli (fold increase in extracellular AK activity)
# [11] = cutoff for positive-scoring molecules 3-fold increase, read-out: AK-based Prestwick Library Screening Results, S. aureus (fold increase in extracellular AK activity)
# [12] = cutoff for positive-scoring molecules 3-fold increase, read-out: AK-based Prestwick Library Screening Results, K. pneumoniae (fold increase in extracellular AK activity)
# [13] = cutoff for positive-scoring molecules 3-fold increase, read-out: AK-based Prestwick Library Screening Results, E. cloacae (fold increase in extracellular AK activity)
# [14] = cutoff for positive-scoring molecules 3-fold increase, read-out: AK-based Prestwick Library Screening Results, E. faecium (fold increase in extracellular AK activity)
# [15] = planktonic A. baumannii, 384-well, cutoff for positive-scoring molecules 3-fold increase, read-out: AK-based Prestwick Library Screening Results: A. baumannii (increase in extracellular AK activity)
# [16] = planktonic P. aeruginosa, 384-well, cutoff for positive-scoring molecules 3-fold increase, read-out: AK-based Prestwick Library Screening Results: P. aeruginosa (increase in extracellular AK activity)
# [17] = planktonic S. aureus, 384-well, cutoff for positive-scoring molecules 3-fold increase, read-out: AK-based Prestwick Library Screening Results: S. aureus (increase in extracellular AK activity)
# [18] = planktonic K. pneumoniae, 384-well, cutoff for positive-scoring molecules 3-fold increase, read-out: AK-based Prestwick Library Screening Results: K. pneumoniae (increase in extracellular AK activity)
# [19] = planktonic E. cloacae, 384-well, cutoff for positive-scoring molecules 3-fold increase, read-out: AK-based Prestwick Library Screening Results: E. cloacae (increase in extracellular AK activity)
# [20] = planktonic E. faecium, 384-well, cutoff for positive-scoring molecules 3-fold increase, read-out: AK-based Prestwick Library Screening Results: E. faecium (increase in extracellular AK activity)
# [21] = planktonic, cutoff for positive 3-fold increase, read-out: AK-based Prestwick Library Screening Results, A. baumannii (fold increase in extracellular AK activity)
# [22] = planktonic, cutoff for positive 3-fold increase, read-out: AK-based Prestwick Library Screening Results, P. aeruginosa (fold increase in extracellular AK activity)
# [23] = planktonic, cutoff for positive 3-fold increase, read-out: AK-based Prestwick Library Screening Results, E. coli (fold increase in extracellular AK activity)
# [24] = planktonic, cutoff for positive 3-fold increase, read-out: AK-based Prestwick Library Screening Results, S. aureus (fold increase in extracellular AK activity)
# [25] = planktonic, cutoff for positive 3-fold increase, read-out: AK-based Prestwick Library Screening Results, K. pneumoniae (fold increase in extracellular AK activity)
# [26] = planktonic, cutoff for positive 3-fold increase, read-out: AK-based Prestwick Library Screening Results, E. cloacae (fold increase in extracellular AK activity)
# [27] = planktonic, cutoff for positive 3-fold increase, read-out: AK-based Prestwick Library Screening Results, E. faecium (fold increase in extracellular AK activity)
# [28] = cutoff for positive-scoring molecules 3-fold increase
smiles,measurement,setting,value
CC(C)(C)NC(=O)[C@H]1CC[C@H]2[C@@H]3CC[C@H]4NC(=O)C=C[C@]4(C)[C@H]3CC[C@]12C [Finasteride],fold induction at 50 µM,[1]; [8],1.2
same,fold induction at 50 µM,[2]; [9],1.1
same,fold induction at 50 µM,[3]; [10],1.1
same,fold induction at 50 µM,[4]; [11],1
same,fold induction at 50 µM,[5]; [12],0.9
same,fold induction at 50 µM,[6]; [13],1.8
same,fold induction at 50 µM,[7]; [14],1.1
COc1ccc(C(=O)OC2C[C@H]3CC[C@@H](C2)N3C)cc1OC.Cl (some centres unmarked) [Convolamine hydrochloride],"AK-based Prestwick Library Screening Results, A. baumannii (increase in extracellular AK activity)","[1]; planktonic A. baumannii, cutoff for positive-scoring molecules 3-fold increase",1.0
same,"AK-based Prestwick Library Screening Results, P. aeruginosa (increase in extracellular AK activity)","[2]; planktonic P. aeruginosa, cutoff for positive-scoring molecules 3-fold increase",0.8
same,"AK-based Prestwick Library Screening Results, E. coli (increase in extracellular AK activity)","[3]; planktonic E. coli, cutoff for positive-scoring molecules 3-fold increase",1.1
same,"AK-based Prestwick Library Screening Results, S. aureus (increase in extracellular AK activity)","[4]; planktonic S. aureus, cutoff for positive-scoring molecules 3-fold increase",0.6
same,"AK-based Prestwick Library Screening Results, K. pneumoniae (increase in extracellular AK activity)","[5]; planktonic K. pneumoniae, cutoff for positive-scoring molecules 3-fold increase",0.7
same,"AK-based Prestwick Library Screening Results, E. cloacae (increase in extracellular AK activity)","[6]; planktonic E. cloacae, cutoff for positive-scoring molecules 3-fold increase",1.3
same,"AK-based Prestwick Library Screening Results, E. faecium (increase in extracellular AK activity)","[7]; planktonic E. faecium, cutoff for positive-scoring molecules 3-fold increase",0.9
O=c1[nH]cnc2c1ncn2[C@H]1CC[C@@H](CO)O1 [Didanosine],fold induction at 50 µM,[1]; [15],1.5
same,fold induction at 50 µM,[2]; [16],1
same,fold induction at 50 µM,"[3]; planktonic E. coli, 384-well, […], read-out: AK-based Prestwick Library Screening Results: E. coli (increase in extracellular AK activity)",4.7
same,fold induction at 50 µM,[4]; [17],1.2
same,fold induction at 50 µM,[5]; [18],0.9
same,fold induction at 50 µM,[6]; [19],4.2
same,fold induction at 50 µM,[7]; [20],0.9
NCc1ccccc1CC(=O)N[C@@H]1C(=O)N2C(C(=O)O)=C(CSc3nnnn3CC(=O)O)CS[C@H]12 [Ceforanide],fold induction at 50 µM,[1]; [21],1.8
same,fold induction at 50 µM,[2]; [22],1.2
same,fold induction at 50 µM,[3]; [23],12.2
same,fold induction at 50 µM,[4]; [24],1.8
same,fold induction at 50 µM,[5]; [25],3.1
same,fold induction at 50 µM,[6]; [26],1.9
same,fold induction at 50 µM,[7]; [27],1
CCN(CCCCOC(=O)c1ccc(OC)c(OC)c1)C(C)Cc1ccc(OC)cc1 (centres unmarked) [Mebeverine hydrochloride],fold induction at 50 µM,[1]; [15],1.4
same,fold induction at 50 µM,[2]; [16],1.1
same,fold induction at 50 µM,"[3]; planktonic E. coli, 384-well, cutoff for positive-scoring molecules 3-fold increase, read-out: AK-based Prestwick Library Screening Results: E. coli (increase in extracellular AK activity)",1.3
same,fold induction at 50 µM,[4]; [17],1.1
same,fold induction at 50 µM,[5]; [18],1
same,fold induction at 50 µM,[6]; [19],1.3
same,fold induction at 50 µM,[7]; [20],1
N[C@@H](C(=O)N[C@@H]1C(=O)N2C(C(=O)O)=C(Cl)CS[C@H]12)c1ccccc1 [Cefaclor],fold induction at 50 µM,"[1]; planktonic A. baumannii, cutoff for positive-scoring molecules 3-fold increase, read-out: AK-based Prestwick Library Screening Results, A. baumannii (increase in extracellular AK activity)",1.5
same,fold induction at 50 µM,"[2]; planktonic P. aeruginosa, cutoff for positive-scoring molecules 3-fold increase, read-out: AK-based Prestwick Library Screening Results, P. aeruginosa (increase in extracellular AK activity)",0.5
same,fold induction at 50 µM,"[3]; planktonic E. coli, cutoff for positive-scoring molecules 3-fold increase, read-out: AK-based Prestwick Library Screening Results, E. coli (increase in extracellular AK activity)",10.7
same,fold induction at 50 µM,"[4]; planktonic S. aureus, cutoff for positive-scoring molecules 3-fold increase, read-out: AK-based Prestwick Library Screening Results, S. aureus (increase in extracellular AK activity)",0.5
same,fold induction at 50 µM,"[5]; planktonic K. pneumoniae, cutoff for positive-scoring molecules 3-fold increase, read-out: AK-based Prestwick Library Screening Results, K. pneumoniae (increase in extracellular AK activity)",2.5
same,fold induction at 50 µM,"[6]; planktonic E. cloacae, cutoff for positive-scoring molecules 3-fold increase, read-out: AK-based Prestwick Library Screening Results, E. cloacae (increase in extracellular AK activity)",0.7
same,fold induction at 50 µM,"[7]; planktonic E. faecium, cutoff for positive-scoring molecules 3-fold increase, read-out: AK-based Prestwick Library Screening Results, E. faecium (increase in extracellular AK activity)",0.9
CCOC(=O)C1=C(C)NC(C)=C(C(=O)OC)C1c1cccc(Cl)c1Cl (centres unmarked) [Felodipine],fold induction at 50 µM,[1]; [21],3
same,fold induction at 50 µM,[2]; [22],1
same,fold induction at 50 µM,[3]; [23],1.2
same,fold induction at 50 µM,[4]; [24],2.5
same,fold induction at 50 µM,[5]; [25],1
same,fold induction at 50 µM,[6]; [26],1.7
same,fold induction at 50 µM,[7]; [27],1.3
COc1cc(N)c(Cl)cc1C(=O)NC1CCN(Cc2ccccc2)CC1 [Clebopride maleate],fold induction at 50 µM,[1]; [21],1
same,fold induction at 50 µM,[2]; [22],0.9
same,fold induction at 50 µM,[3]; [23],1
same,fold induction at 50 µM,[4]; [24],1.2
same,fold induction at 50 µM,[5]; [25],1
same,fold induction at 50 µM,[6]; [26],1.6
same,fold induction at 50 µM,[7]; [27],1.1
C#C[C@]1(O)CC[C@H]2[C@@H]3CCC4=CC(=O)CC[C@]4(C)[C@H]3CC[C@@]21C [Ethisterone],fold induction at 50 µM,"[1]; 384-well format, […], read-out: AK-based Prestwick Library Screening Results, A. baumannii (increase in extracellular AK activity)",0.9
same,fold induction at 50 µM,"[2]; 384-well format, […], read-out: AK-based Prestwick Library Screening Results, P. aeruginosa (increase in extracellular AK activity)",1
same,fold induction at 50 µM,"[3]; 384-well format, […], read-out: AK-based Prestwick Library Screening Results, E. coli (increase in extracellular AK activity)",1
same,fold induction at 50 µM,"[4]; 384-well format, […], read-out: AK-based Prestwick Library Screening Results, S. aureus (increase in extracellular AK activity)",0.8
same,fold induction at 50 µM,"[5]; 384-well format, […], read-out: AK-based Prestwick Library Screening Results, K. pneumoniae (increase in extracellular AK activity)",0.8
same,fold induction at 50 µM,"[6]; 384-well format, […], read-out: AK-based Prestwick Library Screening Results, E. cloacae (increase in extracellular AK activity)",1.1
same,fold induction at 50 µM,"[7]; 384-well format, […], read-out: AK-based Prestwick Library Screening Results, E. faecium (increase in extracellular AK activity)",0.9
CC1CC(OC(=O)C(O)c2ccccc2)CC(C)(C)N1C (centres unmarked) [Eucatropine hydrochloride],fold induction at 50 µM,[1]; [8],1.1
same,fold induction at 50 µM,[2]; [9],1.1
same,fold induction at 50 µM,[3]; [10],1.2
same,fold induction at 50 µM,[4]; [11],1.3
same,fold induction at 50 µM,[5]; [12],0.9
same,fold induction at 50 µM,[6]; [13],1.6
same,fold induction at 50 µM,[7]; [14],1.1
CC[N+](CC)(CC)CCC(O)(c1ccccc1)C1CCCCC1.[Cl-] (centres unmarked) [Tridihexethyl chloride],"AK-based Prestwick Library Screening Results, A. baumannii (fold increase in extracellular AK activity)",[1]; [28],0.4
same,"AK-based Prestwick Library Screening Results, P. aeruginosa (fold increase in extracellular AK activity)",[2]; [28],0.4
same,"AK-based Prestwick Library Screening Results, E. coli (fold increase in extracellular AK activity)",[3]; [28],0.4
same,"AK-based Prestwick Library Screening Results, S. aureus (fold increase in extracellular AK activity)",[4]; [28],0.4
same,"AK-based Prestwick Library Screening Results, K. pneumoniae (fold increase in extracellular AK activity)",[5]; [28],0.4
same,"AK-based Prestwick Library Screening Results, E. cloacae (fold increase in extracellular AK activity)",[6]; [28],0.3
same,"AK-based Prestwick Library Screening Results, E. faecium (fold increase in extracellular AK activity)",[7]; [28],0.8
